Data on four compounds can be found in paper PMC7076358, “Absorption and Intestinal Metabolic Profile of Oleocanthal in Rats” (Pharmaceutics, 2020).

Where two headings read alike, the source gives them in different places.

On the set-up of series [1]: method as in PMID 15760043, PMID 9068926. The settings on record: cited from earlier work.
Series [2] is described as follows: in situ single-pass intestinal perfusion with simultaneous luminal perfusate and mesenteric blood sampling. It counts as in vivo, Sprague–Dawley rats.
Protocol: LEV was assayed at 3 mg/mL, according to its high dose strength, in 250 mL TM.
Single-pass intestinal perfusion was performed in anesthetized rats according to the method described by Brouwers et al. [15], with simultaneous sampling from the luminal perfusate and mesenteric blood.
Anaesthesia was induced by intraperitoneal injection of pentobarbital sodium (60 mg/kg BW). The rats were then placed on a homeothermic blanket to maintain the body temperature at 37 °C. First, under general anaesthesia, the left jugular vein was cannulated with a heparinised (50 IU/mL) 0.5 × 0.9 mm/20 G catheter (Cavafix® MT, Braun Medical S.A., Barcelona, Spain) for infusion of donor blood. Second, a midline abdominal incision was made to isolate approximately 10 cm of the ileum using the ileocecal junction as a point of reference. Two glass cannulas (o.d. 4 mm, i.d. 3 mm, Duran®, Vidrafoc, Barcelona, Spain) were inserted at the proximal and distal ends of the isolated segment. The segment was rinsed by injection TM to remove the content until the solution came out clear. Next, the inlet cannula was connected to polyethylene tubing (i.d. 3 mm), which aspirated the tested solution (OLC or LEV) using a peristaltic pump (Minipuls3, M312 model, Gilson, Le Bel, France). Finally, the mesenteric vein draining blood from the intestinal segment was cannulated by inserting approximately 1 cm of a catheter (BD Insyte-W 24GA 0.7 × 19 mm, Becton Dickinson, Sangüesa S.A., Cornellà de Llobregat, Spain). The cannula was secured with a knot and connected to a silicone tube (i.d. 0.64 mm; o.d. 1.19 mm, Freudenberg Medical Europe, VWR International Eurolab S.L., Llinars del Vallés, Spain) that allowed blood to flow into the heparinised tubes. Care was taken to handle the small intestine gently to maintain normal blood supply. […]
The experiments were carried out in a laboratory room with infrared light to avoid oxidation of OLC. […] At the end of the experiment, the animal was euthanised by injection of air into the jugular, and the length of the intestinal segment was measured. […]
For series [3] the following is noted: source not stated; cited from earlier work.
For another series, the system named is Caco-2 cell monolayers. Details: method as in PMID 10745093. As to conditions: differentiated Caco-2 cell monolayers; cited from earlier work.
On the set-up of series [4]: method as in PMID 11110859. As to conditions: rat intestine perfused, cited from earlier work.

Turning to `C[C@H]1COc2c(N3CCN(C)CC3)c(F)cc3c(=O)c(C(=O)O)cn1c23` [LEV, levofloxacin], the oral bioavailability in series [1] is given as approximately 100%.

The term Papp denotes a coefficient for how fast a substance crosses the barrier. A word on the logP: it is a log measure of how a compound divides between an organic and an aqueous phase. In the case of `C/C=C(/C=O)[C@@H](CC=O)CC(=O)OCCc1ccc(O)cc1` [OLC, oleocanthal], in series [2] (Sprague-Dawley, pH 7, rat ileum, disappearance from lumen, OLC 0.1 mg/mL, LEV 3 mg/mL, flow 1 mL/min, mean ± SD, n = 4, normalised to 10-cm segment, read-out: Peff (effective permeability coefficient)), the Peff at 60 min is 22.3 ± 31.6 ×10⁻⁶ cm/s. The Papp at 60 min in series [2] (Sprague-Dawley, rat, pH 7, rat ileum, appearance in mesenteric blood, OLC 0.1 mg/mL, LEV 3 mg/mL, mean ± SD, n = 4, normalised to 10-cm segment, read-out: Papp (apparent permeability coefficient)) was found to be 4.12 ± 2.33 ×10⁻⁶ cm/s. The absorption in series [2] (rat in situ intestinal perfusion, stated in conclusions) is 16%. The logP in series [3] was 1.15.

For `OCCc1ccc(O)c(O)c1` [hydroxytyrosol], the permeability with Caco-2 cell monolayers is reported as 12.4 ± 0.9 × 10^−6 cm/s.

In the case of `C/C=C1/[C@H](O[C@@H]2O[C@H](CO)[C@@H](O)[C@H](O)[C@H]2O)OC=C(C(=O)OC)[C@H]1CC(=O)OCCc1ccc(O)c(O)c1` [oleuropein], the intestinal permeability coefficient in series [4] (hypotonic conditions) was 5.92 ×10⁻⁶ cm/s; in series [4] (iso-osmotic conditions), 1.47 ×10⁻⁶ cm/s.
